# According to article PMC3173978, “Kinetic Characterisation of Phosphofructokinase Purified from Setaria cervi: A Bovine Filarial Parasite” (Enzyme Research, 2011):
# Key:
# [1] = tested on: T1, S. cervi PFK (phosphofructokinase); assay: coupled assay (aldolase/TPI/GDH, NADH oxidation at […] nm), Lineweaver-Burk; type: biochemical, Setaria cervi; settings: 50 and 100 μM ATP, 3.3 mM Mg2+, pH 8.0
# T1 construct: native enzyme purified to electrophoretic homogeneity from adult female worms (from buffalo peritoneal folds); subunit mass 90 kDa
# [2] = molecular target: T1, S. cervi PFK (phosphofructokinase); assay: as above; type: biochemical, Setaria cervi; settings: competitive vs F-6-P, 0.1 mM ATP, 3.3 mM Mg2+, Tris-HCl pH 8.0
smiles,measurement,setting,value
"O=P(O)(O)OC[C@H]1OC(O)(CO)[C@@H](O)[C@@H]1O (stereo partly drawn) [F-6-P, D-fructose-6-phosphate]",Km,[1],1050 µM
"O=P(O)(O)OC[C@H]1OC(O)(COP(=O)(O)O)[C@@H](O)[C@@H]1O (stereo partly drawn) [FDP, D-fructose-1,6-diphosphate]",Ki,[2]; aldolase in coupling system acts on FDP,0.18 µM
"C=C(OP(=O)(O)O)C(=O)O [PEP, phosphoenolpyruvate]",Ki,[2],800 µM
